The source of these data is PubChem BioAssay AID1259407 (Chemical Carcinogenesis Research Information System (CCRIS), 2018).

In the data set the test system is CCRIS mutagenicity, Ames/micronucleus/aberration tests. The data set can be described thus: CCRIS mutagenicity studies. To be noted: Test System: AMES SALMONELLA TYPHIMURIUM, Method: PREINCUBATION

The source made the active and inactive calls. How the calls were made is not given here.

Consider `O=c1ccc(=O)c2c(=O)c(Cl)c(Cl)c(=O)c1=2`, for which the mutagenic call reads like this: (Strain/Indicator: TA97, Metabolic Activation: NONE) “inactive; negative”; (Strain/Indicator: TA97, Metabolic Activation: RAT, LIVER, S-9, PHENOBARBITAL AND 5,6-BENZOFLAVONE) “active; positive”; (Strain/Indicator: TA98, Metabolic Activation: NONE) “inactive; negative”; (Strain/Indicator: TA98, Metabolic Activation: RAT, LIVER, S-9, PHENOBARBITAL AND 5,6-BENZOFLAVONE) “inactive; negative”; (Strain/Indicator: TA100, Metabolic Activation: NONE) “inactive; negative”; (Strain/Indicator: TA100, Metabolic Activation: RAT, LIVER, S-9, PHENOBARBITAL AND 5,6-BENZOFLAVONE) “inactive; negative”. The mutagenic call is, setting by setting: (Strain/Indicator: TA102, Metabolic Activation: NONE) “active; positive”; (Strain/Indicator: TA102, Metabolic Activation: RAT, LIVER, S-9, PHENOBARBITAL AND 5,6-BENZOFLAVONE) “active; positive”; (Strain/Indicator: TA104, Metabolic Activation: NONE) “active; positive”; (Strain/Indicator: TA104, Metabolic Activation: RAT, LIVER, S-9, PHENOBARBITAL AND 5,6-BENZOFLAVONE) “active; positive”; (Strain/Indicator: TA1535, Metabolic Activation: NONE) “inactive; negative”; (Strain/Indicator: TA1535, Metabolic Activation: RAT, LIVER, S-9, PHENOBARBITAL AND 5,6-BENZOFLAVONE) “inactive; negative”. Besides, the mutagenic call by setting is: (Strain/Indicator: TA1537, Metabolic Activation: NONE) “inactive; negative”; (Strain/Indicator: TA1537, Metabolic Activation: RAT, LIVER, S-9, PHENOBARBITAL AND 5,6-BENZOFLAVONE) “inactive; negative”; (Strain/Indicator: TA1538, Metabolic Activation: NONE) “inactive; negative”; (Strain/Indicator: TA1538, Metabolic Activation: RAT, LIVER, S-9, PHENOBARBITAL AND 5,6-BENZOFLAVONE) “inactive; negative”; (Strain/Indicator: TA2637, Metabolic Activation: NONE) “active; positive”; (Strain/Indicator: TA2637, Metabolic Activation: RAT, LIVER, S-9, PHENOBARBITAL AND 5,6-BENZOFLAVONE) “active; positive”.
